SMILES strings stand for the structures. A value given as a limit tells only on which side of the number the result lay.

This experiment addresses T1, human TGR5 (Homo sapiens, UniProt Q8TDU6).
T1 construct: expressed in transfected cells; host or cells: HEK293
T1 sequence (Q8TDU6 1-330): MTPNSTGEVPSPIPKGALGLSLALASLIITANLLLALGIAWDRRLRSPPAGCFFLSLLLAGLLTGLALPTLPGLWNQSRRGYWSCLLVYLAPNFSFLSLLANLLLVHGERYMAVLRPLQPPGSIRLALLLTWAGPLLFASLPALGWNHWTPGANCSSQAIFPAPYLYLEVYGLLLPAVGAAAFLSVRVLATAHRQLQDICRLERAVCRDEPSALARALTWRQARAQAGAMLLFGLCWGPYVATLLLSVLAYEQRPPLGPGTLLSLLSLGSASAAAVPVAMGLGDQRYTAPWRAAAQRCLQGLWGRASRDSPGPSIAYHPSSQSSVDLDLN
Description: Cell-based TGR5 assay (cAMP generation, HTRF). Conditions: HEK293 cells stably transfected with human TGR5; cAMP by HTRF; 30 minutes at 37° C.; read-out: pEC50 Human TGR5 (converted). A digest of the protocol: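 Read-out was HTRF detection of cAMP, converted to concentration via a standard curve and fitted (3-parameter logistic) for pEC50 and maximal response. Agonist stimulation used HEK293 cells stably transfected with human TGR5, incubated 30 min at 37° C in IBMX-containing buffer at 0.05 nM to 10 μM compound.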
Regarding `Cc1ccc(SCCCCN(CCS(C)(=O)=O)C[C@H](O)[C@@H](O)[C@H](O)[C@H](O)CO)cc1COC1(c2cnccc2-c2ccccc2OC2CC2)CC1` [Compound I-615, (2R,3R,4R,5S)-6-[(4-{[3-({1-[4-(2-cyclopropoxyphenyl)pyridin-3-yl]cyclopropoxy}methyl)-4-methylphenyl]sulfanyl}butyl)(2-methanesulfonylethyl)amino]hexane-1,2,3,4,5-pentol], the EC50 was under 100 nM.

`Clc1ccc(Cl)c(COC2(c3cnccc3-c3ccccc3OC3CC3)CCC2)c1` [Compound I-741, 4-(2-cyclopropoxyphenyl)-3-(1-((2,5-dichlorobenzyl)oxy)cyclobutyl)pyridine]: the EC50 is under 100 nM. As for `CN(C[C@H](O)[C@@H](O)[C@H](O)[C@H](O)CO)C(=O)CCCCc1cc(Cl)c(CNC2(c3cnccc3-c3ccccc3OC3CC3)CC2)cc1Cl` [Compound I-137, 5-{2,5-dichloro-4-[({1-[4-(2-cyclopropoxyphenyl)pyridin-3-yl]cyclopropyl}amino)methyl]phenyl}-N-methyl-N-[(2S,3R,4R,5R)-2,3,4,5,6-pentahydroxyhexyl]pentanamide], the figure is under 100 nM. The result for `COCCN(CCCC(C)c1ccc(C)c(CNC2(c3cnccc3-c3ccccc3OC3CC3)CC2)c1)C(=O)[C@@H](O)[C@@H](O)[C@H](O)[C@@H](O)CO` (stereo partly drawn) [Compound I-302, (2S,3S,4R,5S)-N-(4-{3-[({1-[4-(2-cyclopropoxyphenyl)pyridin-3-yl]cyclopropyl}amino)methyl]-4-methylphenyl}pentyl)-2,3,4,5,6-pentahydroxy-N-(2-methoxyethyl)hexanamide] reads under 100 nM; that for `[2H]C([2H])(NC(=O)N[C@@H](CO)[C@@H](O)[C@H](O)[C@H](O)CO)C([2H])([2H])C([2H])([2H])C([2H])([2H])N(C)S(=O)(=O)c1ccc(Cl)c(COC2(c3cnccc3-c3ccccc3OC3CC3)CC2)c1` [Compound I-735, 1-(4-[N-methyl[4-chloro-3-([1-[4-(2-cyclopropoxyphenyl)pyridin-3-yl]cyclopropoxy]methyl)benzene]sulfonamido](d8)butyl)-3-[(2S,3R,4S,5R)-1,3,4,5,6-pentahydroxyhexan-2-yl]urea], under 100 nM. With `CN(C)C[C@H](NC(=O)CCCCc1cc(Cl)c(COC2(c3cnccc3-c3ccccc3OC3CC3)CC2)cc1Cl)[C@@H](O)[C@H](O)[C@H](O)CO` [Compound I-165, 5-[2,5-dichloro-4-({1-[4-(2-cyclopropoxyphenyl)pyridin-3-yl]cyclopropoxy}methyl)phenyl]-N-[(2S,3R,4S,5R)-1-(dimethylamino)-3,4,5,6-tetrahydroxyhexan-2-yl]pentanamide], the EC50 was under 100 nM. As for `O=C(CCCCc1cc(Cl)c(COC2(c3cnccc3-c3ccccc3OC3CC3)CC2)cc1Cl)N(CCCO)C[C@H](O)[C@@H](O)[C@H](O)[C@H](O)CO` [Compound I-218, 5-[2,5-dichloro-4-({1-[4-(2-cyclopropoxyphenyl)pyridin-3-yl]cyclopropoxy}methyl)phenyl]-N-(3-hydroxypropyl)-N-[(2S,3R,4R,5R)-2,3,4,5,6-pentahydroxyhexyl]pentanamide], the figure is under 100 nM; as for `Cc1cc(COC2(c3cnccc3-c3ccccc3OC3CC3)CC2)c(Cl)cc1CCCCNC(=O)N[C@H](CCCCN)C(=O)O` [Compound I-119, (2R)-6-amino-2-[({4-[5-chloro-4-({1-[4-(2-cyclopropoxyphenyl)pyridin-3-yl]cyclopropoxy}methyl)-2-methylphenyl]butyl}carbamoyl)amino]hexanoic acid], 126 to 1000 nM; as for `Cc1ccc(CCCCC(=O)NC[C@H](O)[C@@H](O)[C@H](O)[C@H](O)CO)cc1COC1(c2cnccc2-c2ccccc2OC2CC2)CC1` (stereo in doubt) [Compound I-235, 5-[3-({1-[4-(2-cyclopropoxyphenyl)pyridin-3-yl]cyclopropoxy}methyl)-4-methylphenyl]-N-[(2S,3R,4R,5R)-2,3,4,5,6-pentahydroxyhexyl]pentanamide], under 100 nM.

Source of the values: patent US12084472B2 (Ardelyx, Inc., priority 2015, dated 2024).
